Values of other authors in US11707455B2, “Pharmaceutical composition containing dabigatran etexilate and preparation method thereof” (SHANGHAI WD PHARMACEUTICAL CO., LTD, priority 2018, dated 2023).

Experiments:
[1] = pH 1
[2] = in vivo

CCCCCCOC(=O)N=C(N)c1ccc(NCc2nc3cc(C(=O)N(CCC(=O)OCC)c4ccccn4)ccc3n2C)cc1.CS(=O)(=O)O [DEM]
maximum solubility [1]: greater than 80 mg/mL
Cmax variation range [2]: ≤ 5 folds
